The test system of test [1] is Hedgehog pathway activation on 10T1/2/Smo#3 cells (C3H10T1/2 cells transfected with human Smoothened receptor). Nature of the test: Hedgehog pathway activation on 10T1/2/Smo#3 cells measured by ALP activity. Format: cell-based. To be noted: Mus musculus, C3H 10T1/2, 10T1/2/Smo#3 cells. As to the method:
Hedgehog conditioned media was obtained by transfecting 293H cells with the full length gene encoding human Sonic Hedgehog (hShh) inserted into the pCMV6 expression vector, which contains a neomycin selectable marker and expresses the protein of interest with a C-terminal FLAG affinity tag. After selection in G418 containing media, conditioned media from Hedgehog expressing clones were tested for the ability to activate the hedgehog-responsive GLi-luciferase reporter in the Shh Light II cell line obtained by license from John Hopkins University (Taipale J, et al. Effects of oncogenic mutations in Smoothened and Patched can be reversed by cyclopamine. Nature 406: 1005-1009, 2000).
C3H10T1/2 cells were transfected with a pCMV expression vector containing the full length gene sequence encoding the human Smoothened receptor. Pooled cells, designated 10T1/2/Smo#3, growing in G418 selection media responded to activation by 10-20% conditioned hShh media with an approximate 5-10 fold increase in alkaline phosphaste (ALP) activity over untransfected parent C3H10T1/2 cells as measured by the conversion of the free acid of 4-methylumbelliferyl phosphate to a fluorescent product.
A test compound library was screened against hShh and 500 nM SAG (a direct agonist of the Smoothened receptor) activated 10T1/2/Smo#3 cells and Shh Light II reporter cells for the ability to block Hedgehog pathway activation. Concurrently, cell viability was measured by utilizing Celltiter-Blue® (Promega, Madison Wis.) viability assay. Active compounds were defined as those that inhibited Hedgehog signaling by greater than 50% with no concurrent loss in cell viability.
Their inhibitory activity against Hedgehog pathway activation on 10T1/2/Smo#3 cells as measured by ALP activity and Shh Light II reporter cells as measured by luciferase activity is shown in Table 1 below. In Table 1, +++ stands for an IC50 value that is less than 0.3 μM, ++ between 0.3 and 3 μM, + between 3 and 30 μM.
Additional data for compounds of the invention is shown below in Table 2. Their inhibitory activities against Hedgehog pathway activation are shown as IC50 values in μM on 10T1/2/Smo#3 cells as measured by ALP activity, or on Shh Light II reporter cells as measured by luciferase activity (hShh activation).

In test [2] the test system is Hedgehog pathway activation (GLi-luciferase reporter) in Shh Light II reporter cells. Briefly: Hedgehog pathway activation on Shh Light II reporter cells measured by luciferase activity. Format: cell-based. The following applies: Mus musculus, Shh Light II. The gist of the method: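 Shh Light II reporter cells carrying a hedgehog-responsive GLi-luciferase reporter were stimulated either with 500 nM SAG, a direct Smoothened agonist, or with conditioned media containing human Sonic Hedgehog (hShh). Test compounds were evaluated for blocking this pathway activation, quantified by luciferase activity. Cell viability was monitored in parallel with the Celltiter-Blue® assay.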

The mark [3] stands for this setting: hShh activation, ALP activity, read-out: 10T1/2/Smo#3 ALP activity (hShh Activation).
Setting [4] is: SAG activation (500 nM SAG), read-out: Shh Light II luciferase activity (SAG activation).
The mark [5] stands for this setting: hShh activation, read-out: Shh Light II luciferase activity (hShh activation).
Where [6] appears, read: measured by ALP activity, read-out: ALP (IC50, inhibition of Hedgehog pathway activation).
Setting [7] is: hShh activation, read-out: Shh (IC50, inhibition of Hedgehog pathway activation).

Where two headings read alike, the source gives them in different places.

With `COc1ccc2nc(-c3ccc(C)c(NC(=O)C(C)(C)C)c3)cn2n1` [Example 4, N-(5-(6-methoxyimidazo[1,2-b]pyridazin-2-yl)-2-methylphenyl)pivalamide], the results for the IC50 in test [1] (setting [3]), in test [2] (setting [4]) and in test [2] (setting [5]) were 300 to 3000 nM, 300 to 3000 nM and 3000 to 30000 nM, respectively.

As to `CC(C)(C)C(=O)Nc1cc(-c2cn3cc(Cl)ccc3n2)ccc1C(F)(F)F` [Example 81, N-(5-(6-chloroimidazo[1,2-a]pyridin-2-yl)-2-(trifluoromethyl)phenyl)pivalamide], the IC50 is 300 to 3000 nM in test [1] (setting [3]); 2430 nM in test [1] (setting [6]); 300 to 3000 nM in test [2] (setting [4]); 1070 nM in test [2] (setting [7]); 300 to 3000 nM in test [2] (setting [5]).

Turning to `CC(C)(C)C(=O)Nc1cc(-c2cn3ccc(Cl)cc3n2)ccc1C(F)(F)F` [Example 82, N-(5-(7-chloroimidazo[1,2-a]pyridin-2-yl)-2-(trifluoromethyl)phenyl)pivalamide], the IC50 is > 10000 nM in test [1] (setting [6]) and 6060 nM in test [2] (setting [7]).

Consider `CC(C)(C)C(=O)Nc1cc(-c2cn3cc(-c4ccccc4F)ccc3n2)ccc1C(F)(F)F` [Example 83, N-(5-(6-(2-fluorophenyl)imidazo[1,2-a]pyridin-2-yl)-2-(trifluoromethyl)phenyl)pivalamide], for which the IC50 in test [1] (setting [3]) was 300 to 3000 nM; in test [1] (setting [6]), 1350 nM; in test [2] (setting [4]), 300 to 3000 nM; in test [2] (setting [7]), 1010 nM; in test [2] (setting [5]) it was 300 to 3000 nM.

With `CC(C)(C)C(=O)Nc1cc(-c2cn3nc(Cl)ccc3n2)ccc1OC(F)(F)F` [Example 245, N-(5-(6-chloroimidazo[1,2-b]pyridazin-2-yl)-2-(trifluoromethoxy)phenyl)pivalamide], in test [1] (setting [6]), the IC50 amounted to 2970 nM.

As for `CCOc1ccc2nc(-c3ccc(OC(F)(F)F)c(NC(=O)C(C)(C)C)c3)cn2n1` [Example 246, N-(5-(6-ethoxyimidazo[1,2-b]pyridazin-2-yl)-2-(trifluoromethoxy)phenyl)pivalamide], the IC50 in test [1] (setting [6]) amounted to 1320 nM.

For `CCCCOc1ccc2nc(-c3ccc(OC(F)(F)F)c(NC(=O)C(C)(C)C)c3)cn2n1` [Example 249, N-(5-(6-butoxyimidazo[1,2-b]pyridazin-2-yl)-2-(trifluoromethoxy)phenyl)pivalamide], in test [1] (setting [6]), the IC50 came out at 889 nM.

With `C[C@@H]1CN(c2ccc3nc(-c4ccc(C(F)(F)F)c(NC(=O)C(C)(C)C)c4)cn3n2)C[C@H](C)O1` [Example 250, N-(5-(6-(2,6-dimethylmorpholino)imidazo[1,2-b]pyridazin-2-yl)-2-(trifluoromethyl)phenyl)pivalamide], the IC50 in test [1] (setting [6]) came out at 259 nM.

For `CC(C)Oc1ccccc1-c1ccc2nc(-c3ccc(C(F)(F)F)c(NC(=O)C(C)(C)C)c3)cn2n1` [Example 251, N-(5-(6-(2-isopropoxyphenyl)imidazo[1,2-b]pyridazin-2-yl)-2-(trifluoromethyl)phenyl)pivalamide], the IC50 in test [1] (setting [6]) stood at 518 nM.

Take `CC(=O)c1cccc(-c2ccc3nc(-c4ccc(C(F)(F)F)c(NC(=O)C(C)(C)C)c4)cn3n2)c1` [Example 254, N-(5-(6-(3-acetylphenyl)imidazo[1,2-b]pyridazin-2-yl)-2-(trifluoromethyl)phenyl)pivalamide]: the IC50 in test [1] (setting [6]) amounted to 360 nM.

Regarding `CCOC(=O)c1ccccc1-c1ccc2nc(-c3ccc(C(F)(F)F)c(NC(=O)C(C)(C)C)c3)cn2n1` [Example 257, ethyl 2-(2-(3-pivalamido-4-(trifluoromethyl)phenyl)imidazo[1,2-b]pyridazin-6-yl)benzoate], the IC50 in test [1] (setting [6]) is 497 nM.

Turning to `CC1CN(c2ccc3nc(-c4ccc(OC(F)(F)F)c(NC(=O)C(C)(C)C)c4)cn3n2)CC(C)O1` (stereo not shown) [Example 266, N-(5-(6-(2,6-dimethylmorpholino)imidazo[1,2-b]pyridazin-2-yl)-2-(trifluoromethoxy)phenyl)pivalamide], in test [1] (setting [6]), the IC50 worked out at 1530 nM.

Consider `CC(C)(C)C(=O)Nc1cc(-c2cn3nc(N4CCOCC4)ccc3n2)ccc1OC(F)(F)F` [Example 267, N-(5-(6-morpholinoimidazo[1,2-b]pyridazin-2-yl)-2-(trifluoromethoxy)phenyl)pivalamide], for which the IC50 in test [1] (setting [6]) was determined as 2080 nM.

As for `CC(C)(C)C(=O)Nc1cc(-c2cn3nc(N4CCN(S(C)(=O)=O)CC4)ccc3n2)ccc1OC(F)(F)F` [Example 268, N-(5-(6-(4-(methylsulfonyl)piperazin-1-yl)imidazo[1,2-b]pyridazin-2-yl)-2-(trifluoromethoxy)phenyl)pivalamide], in test [1] (setting [6]), the IC50 worked out at 1940 nM.

Turning to `CC(C)(C)C(=O)Nc1cc(-c2cn3nc(N4CCC(O)CC4)ccc3n2)ccc1OC(F)(F)F` [Example 269, N-(5-(6-(4-hydroxypiperidin-1-yl)imidazo[1,2-b]pyridazin-2-yl)-2-(trifluoromethoxy)phenyl)pivalamide], the IC50 in test [1] (setting [6]) was found to be 1010 nM.

With `CC(C)(C)C(=O)Nc1cc(-c2cn3nc(Cl)ccc3n2)ccc1C1CC1` [Example 270, N-(5-(6-chloroimidazo[1,2-b]pyridazin-2-yl)-2-cyclopropylphenyl)pivalamide], in test [1] (setting [6]), the IC50 came out at 9430 nM.

`CC(C)(C)C(=O)Nc1cc(-c2cn3nc(-c4ccccc4F)ccc3n2)ccc1C1CC1` [Example 271, N-(2-cyclopropyl-5-(6-(2-fluorophenyl)imidazo[1,2-b]pyridazin-2-yl)phenyl)pivalamide]: the IC50 in test [1] (setting [6]) is 246 nM.

As to `CCOc1ccc2nc(-c3ccc(C4CC4)c(NC(=O)C(C)(C)C)c3)cn2n1` [Example 272, N-(2-cyclopropyl-5-(6-ethoxyimidazo[1,2-b]pyridazin-2-yl)phenyl)pivalamide], the IC50 in test [1] (setting [6]) was 1260 nM.

`C[C@@H]1CN(c2ccc3nc(-c4ccc(OC(F)(F)F)c(NC(=O)C(C)(C)C)c4)cn3n2)C[C@H](C)O1` [Example 463, N-(5-(6-((2R,6S)-2,6-dimethylmorpholino)imidazo[1,2-b]pyridazin-2-yl)-2-(trifluoromethoxy)phenyl)pivalamide]: the IC50 in test [1] (setting [6]) worked out at 1530 nM.

For the molecule `Cc1ccc(-c2cn3nc(-c4cccc(F)c4Cl)ccc3n2)cc1NC(=O)C(C)(C)C` [compound 619], in test [2] (setting [7]), the IC50 was 35 nM.

On to `Cc1ccc(-c2cn3nc(Cl)ccc3n2)cc1NC(=O)C(C)(C)C#N` [compound 620], for which the IC50 in test [2] (setting [7]) was found to be 3200 nM.

With `Cc1ccc(-c2cn3nc(-c4cccnc4C(F)(F)F)ccc3n2)cc1NC(=O)C(C)(C)C#N` [compound 621, 2-cyano-2-methyl-N-(2-methyl-5-(6-(2-(trifluoromethyl)pyridin-3-yl)imidazo[1,2-b]pyridazin-2-yl)phenyl)propanamide], the IC50 in test [2] (setting [7]) was 53 nM.

As for `Cc1ccc(C2CN3N=C(c4cccnc4C(F)(F)F)C=CC3=N2)cc1NC(=O)C(C)(C)CN` (stereo not shown) [compound 622, 3-amino-2,2-dimethyl-N-(2-methyl-5-(6-(2-(trifluoromethyl)pyridin-3-yl)-2,3-dihydroimidazo[1,2-b]pyridazin-2-yl)phenyl)propanamide], the IC50 in test [2] (setting [7]) was found to be 534 nM.

On to `Cc1ccc(-c2cn3nc(-c4cccnc4C(F)(F)F)ccc3n2)cc1NS(=O)(=O)c1cccc(C=CC(=O)Nc2ccccc2N)c1` [compound 624, N-(2-aminophenyl)-3-(3-(N-(2-methyl-5-(6-(2-(trifluoromethyl)pyridin-3-yl)imidazo[1,2-b]pyridazin-2-yl)phenyl)sulfamoyl)phenyl)acrylamide], for which, in test [2] (setting [7]), the IC50 worked out at 824 nM.

In the case of `Cc1ccc(-c2cn3nc(-c4cccnc4C(F)(F)F)ccc3n2)cc1NC(=O)c1cccc(C=CC(=O)NO)c1` [compound 625, 3-(3-(hydroxyamino)-3-oxoprop-1-en-1-yl)-N-(2-methyl-5-(6-(2-(trifluoromethyl)pyridin-3-yl)imidazo[1,2-b]pyridazin-2-yl)phenyl)benzamide], the IC50 in test [2] (setting [7]) was found to be 813 nM.

`Cc1ccc(-c2cn3nc(-c4cccnc4C(F)(F)F)ccc3n2)cc1NS(=O)(=O)c1cccc(C=CC(=O)NO)c1` [compound 626, N-hydroxy-3-(3-(N-(2-methyl-5-(6-(2-(trifluoromethyl)pyridin-3-yl)imidazo[1,2-b]pyridazin-2-yl)phenyl)sulfamoyl)phenyl)acrylamide]: the IC50 in test [2] (setting [7]) was 2910 nM.

For the origin of these results see patent US8871767B2, “2-arylimidazo[1,2-B]pyridazine, 2-phenylimidazo[1,2-A]pyridine, and 2-phenylimidazo[1,2-A]pyrazine derivatives” (Hengrui (USA) Ltd., priority 2010, dated 2014).
